Numbers after ± are expanded uncertainties.

Consider 13 molecules from the NIST ThermoML archive (doi:10.1021/je060257y).

This data set can be described thus: molar heat capacity at constant pressure. Conditions: 101.33 kPa, Crystal.

Take `O=c1cc[nH]c(=O)[nH]1` [2,4(1H,3H)-pyrimidinedione]: the “molar heat capacity at constant pressure” value (298.15 K) turned out to be 131.8 ± 4.7 J/K/mol; the “molar heat capacity at constant pressure” value (303.15 K) is given as 135.5 ± 4.7 J/K/mol; the “molar heat capacity at constant pressure” value (308.15 K) is reported as 140.9 ± 4.9 J/K/mol; the “molar heat capacity at constant pressure” value (313.15 K) turned out to be 143 ± 4.9 J/K/mol; the “molar heat capacity at constant pressure” value (318.15 K) came to 146.1 ± 5 J/K/mol; the “molar heat capacity at constant pressure” value (323.15 K) is reported as 149 ± 5.1 J/K/mol. The “molar heat capacity at constant pressure” value (328.15 K) was found to be 151.8 ± 5.1 J/K/mol, the “molar heat capacity at constant pressure” value (333.15 K) came out at 154.3 ± 5.2 J/K/mol, the “molar heat capacity at constant pressure” value (338.15 K) is on record as 156.8 ± 5.2 J/K/mol and the “molar heat capacity at constant pressure” value (343.15 K) amounted to 157.4 ± 5.3 J/K/mol.
Regarding `Cc1nc(O)nc(O)c1C` [2,4-dihydroxy-5,6-dimethylpyrimidine], the “molar heat capacity at constant pressure” value came out at 191.1 ± 5.9 J/K/mol (298.15 K); 198.3 ± 6.1 J/K/mol (303.15 K); 203.2 ± 6.3 J/K/mol (308.15 K); 208 ± 6.4 J/K/mol (313.15 K); 212 ± 6.6 J/K/mol (318.15 K); 215.6 ± 6.7 J/K/mol (323.15 K). Moreover, the “molar heat capacity at constant pressure” value is, setting by setting: (328.15 K) 219.1 ± 6.8 J/K/mol; (333.15 K) 223.3 ± 6.9 J/K/mol; (338.15 K) 229.3 ± 7.1 J/K/mol; (343.15 K) 234.1 ± 7.3 J/K/mol.
As to `Cc1cc(O)nc(O)n1` [2,4-dihydroxy-6-methylpyrimidine], the “molar heat capacity at constant pressure” value (298.15 K) is on record as 162.5 ± 5 J/K/mol; the “molar heat capacity at constant pressure” value (303.15 K) came out at 167.2 ± 5.2 J/K/mol; the “molar heat capacity at constant pressure” value (308.15 K) is listed as 170.2 ± 5.3 J/K/mol; the “molar heat capacity at constant pressure” value (313.15 K) was determined as 172.2 ± 5.3 J/K/mol; the “molar heat capacity at constant pressure” value (318.15 K) is reported as 176.9 ± 5.5 J/K/mol; the “molar heat capacity at constant pressure” value (323.15 K) was determined as 181.4 ± 5.6 J/K/mol. Also, the “molar heat capacity at constant pressure” value reads like this: (328.15 K) 183 ± 5.7 J/K/mol; (333.15 K) 187.3 ± 5.8 J/K/mol; (338.15 K) 190.4 ± 5.9 J/K/mol; (343.15 K) 193 ± 6 J/K/mol.
Regarding `O=[N+]([O-])c1cnc(O)nc1O` [2,4-pyrimidinedione, 5-nitro-], the “molar heat capacity at constant pressure” value runs as follows: (298.15 K) 167.2 ± 5.2 J/K/mol; (303.15 K) 167.9 ± 5.2 J/K/mol; (308.15 K) 169.9 ± 5.3 J/K/mol; (313.15 K) 169.9 ± 5.3 J/K/mol; (318.15 K) 171.1 ± 5.3 J/K/mol; (323.15 K) 171.8 ± 5.3 J/K/mol. Besides, the “molar heat capacity at constant pressure” value (328.15 K) is 173 ± 5.4 J/K/mol, the “molar heat capacity at constant pressure” value (333.15 K) was 173.1 ± 5.4 J/K/mol, the “molar heat capacity at constant pressure” value (338.15 K) amounted to 174.5 ± 5.4 J/K/mol and the “molar heat capacity at constant pressure” value (343.15 K) was found to be 174.5 ± 5.4 J/K/mol.
Regarding `Cc1cc(=O)n(C)c(=O)[nH]1` [3,6-dimethyluracil], the “molar heat capacity at constant pressure” value (298.15 K) turned out to be 187.4 ± 5.9 J/K/mol; the “molar heat capacity at constant pressure” value (303.15 K) came out at 193.1 ± 6 J/K/mol; the “molar heat capacity at constant pressure” value (308.15 K) stood at 191.4 ± 6 J/K/mol; the “molar heat capacity at constant pressure” value (313.15 K) worked out at 193.5 ± 6.1 J/K/mol; the “molar heat capacity at constant pressure” value (318.15 K) came to 198.4 ± 6.2 J/K/mol; the “molar heat capacity at constant pressure” value (323.15 K) is recorded as 200.3 ± 6.2 J/K/mol. In addition, the “molar heat capacity at constant pressure” value runs as follows: (328.15 K) 202.4 ± 6.3 J/K/mol; (333.15 K) 203.8 ± 6.3 J/K/mol; (338.15 K) 206 ± 6.4 J/K/mol; (343.15 K) 209 ± 6.5 J/K/mol.
As for `O=c1[nH]cc(C(F)(F)F)c(=O)[nH]1` [5-(trifluoromethyl)uracil], the “molar heat capacity at constant pressure” value is 182.2 ± 5.6 J/K/mol (298.15 K); 183.9 ± 5.7 J/K/mol (303.15 K); 188.1 ± 5.8 J/K/mol (308.15 K); 190.3 ± 5.9 J/K/mol (313.15 K); 192.2 ± 6 J/K/mol (318.15 K); 195.9 ± 6.1 J/K/mol (323.15 K). Besides, the “molar heat capacity at constant pressure” value by setting is: (328.15 K) 198.2 ± 6.1 J/K/mol; (333.15 K) 199.4 ± 6.2 J/K/mol; (338.15 K) 204.4 ± 6.3 J/K/mol; (343.15 K) 206.6 ± 6.4 J/K/mol.
On to `O=c1[nH]cc(Br)c(=O)[nH]1` [5-bromouracil], for which the “molar heat capacity at constant pressure” value by setting is: (298.15 K) 144.7 ± 4.5 J/K/mol; (303.15 K) 147.9 ± 4.6 J/K/mol; (308.15 K) 148.5 ± 4.6 J/K/mol; (313.15 K) 151 ± 4.7 J/K/mol; (318.15 K) 153.9 ± 4.8 J/K/mol; (323.15 K) 157.1 ± 4.9 J/K/mol. Further, the “molar heat capacity at constant pressure” value is, setting by setting: (328.15 K) 157.9 ± 4.9 J/K/mol; (333.15 K) 162 ± 5 J/K/mol; (338.15 K) 164.3 ± 5.1 J/K/mol; (343.15 K) 164.8 ± 5.1 J/K/mol.
As for `Oc1ncc(Cl)c(O)n1` [5-chloro-2,4-pyrimidinedione], the “molar heat capacity at constant pressure” value (298.15 K) came to 136.7 ± 4.2 J/K/mol; the “molar heat capacity at constant pressure” value (303.15 K) is given as 137.9 ± 4.3 J/K/mol; the “molar heat capacity at constant pressure” value (308.15 K) was found to be 142.1 ± 4.4 J/K/mol; the “molar heat capacity at constant pressure” value (313.15 K) amounted to 142.9 ± 4.4 J/K/mol; the “molar heat capacity at constant pressure” value (318.15 K) was determined as 146.1 ± 4.5 J/K/mol; the “molar heat capacity at constant pressure” value (323.15 K) is recorded as 147.2 ± 4.6 J/K/mol. Further, the “molar heat capacity at constant pressure” value is, setting by setting: (328.15 K) 151.2 ± 4.7 J/K/mol; (333.15 K) 152.9 ± 4.7 J/K/mol; (338.15 K) 154.9 ± 4.8 J/K/mol; (343.15 K) 157 ± 4.9 J/K/mol.
Regarding `O=c1[nH]cc(F)c(=O)[nH]1` [5-fluoro-2,4(1H,3H)-pyrimidinedione], the “molar heat capacity at constant pressure” value (298.15 K) is on record as 138.3 ± 4.7 J/K/mol; the “molar heat capacity at constant pressure” value (303.15 K) was 139.1 ± 4.7 J/K/mol; the “molar heat capacity at constant pressure” value (308.15 K) turned out to be 140 ± 4.7 J/K/mol; the “molar heat capacity at constant pressure” value (313.15 K) was found to be 140.9 ± 4.8 J/K/mol; the “molar heat capacity at constant pressure” value (318.15 K) is recorded as 142 ± 4.8 J/K/mol; the “molar heat capacity at constant pressure” value (323.15 K) is on record as 143.6 ± 4.8 J/K/mol. Besides, the “molar heat capacity at constant pressure” value is 145.5 ± 4.9 J/K/mol (328.15 K), 147.9 ± 4.9 J/K/mol (333.15 K), 150.6 ± 5 J/K/mol (338.15 K) and 153.8 ± 5.1 J/K/mol (343.15 K).
For the molecule `O=c1[nH]cc(I)c(=O)[nH]1` [5-iodouracil], the “molar heat capacity at constant pressure” value is, setting by setting: (298.15 K) 150.9 ± 4.7 J/K/mol; (303.15 K) 153.9 ± 4.8 J/K/mol; (308.15 K) 156.8 ± 4.9 J/K/mol; (313.15 K) 159.8 ± 5 J/K/mol; (318.15 K) 162.8 ± 5 J/K/mol; (323.15 K) 165.8 ± 5.1 J/K/mol. In addition, the “molar heat capacity at constant pressure” value was 168.6 ± 5.2 J/K/mol (328.15 K), 170.3 ± 5.3 J/K/mol (333.15 K), 172.7 ± 5.4 J/K/mol (338.15 K) and 177.5 ± 5.5 J/K/mol (343.15 K).
Regarding `O=c1cc(Cl)[nH]c(=O)[nH]1` [6-chlorouracil], the “molar heat capacity at constant pressure” value is 139.4 ± 4.3 J/K/mol (298.15 K); 141 ± 4.4 J/K/mol (303.15 K); 141.2 ± 4.4 J/K/mol (308.15 K); 140.8 ± 4.4 J/K/mol (313.15 K); 141.3 ± 4.4 J/K/mol (318.15 K); 144.7 ± 4.5 J/K/mol (323.15 K). For the same molecule, the “molar heat capacity at constant pressure” value by setting is: (328.15 K) 144.9 ± 4.5 J/K/mol; (333.15 K) 145.1 ± 4.5 J/K/mol; (338.15 K) 146 ± 4.5 J/K/mol; (343.15 K) 147.9 ± 4.6 J/K/mol.
Consider `Cc1c[nH]c(=O)[nH]c1=O` [thymine], for which the “molar heat capacity at constant pressure” value (298.15 K) is 163 ± 5.3 J/K/mol; the “molar heat capacity at constant pressure” value (303.15 K) is recorded as 168.2 ± 5.4 J/K/mol; the “molar heat capacity at constant pressure” value (308.15 K) came out at 173.7 ± 5.6 J/K/mol; the “molar heat capacity at constant pressure” value (313.15 K) worked out at 178.7 ± 5.7 J/K/mol; the “molar heat capacity at constant pressure” value (318.15 K) came out at 184.3 ± 5.8 J/K/mol; the “molar heat capacity at constant pressure” value (323.15 K) was 189.9 ± 6 J/K/mol. The “molar heat capacity at constant pressure” value was found to be 195.2 ± 6.1 J/K/mol (328.15 K), 200 ± 6.2 J/K/mol (333.15 K), 203.5 ± 6.3 J/K/mol (338.15 K) and 205.9 ± 6.4 J/K/mol (343.15 K).
Regarding `Cn1c(=O)cc[nH]c1=O` [uracil, 3-methyl-], the “molar heat capacity at constant pressure” value reads like this: (298.15 K) 157 ± 5 J/K/mol; (303.15 K) 168.8 ± 5.3 J/K/mol; (308.15 K) 181.2 ± 5.7 J/K/mol; (313.15 K) 193 ± 6 J/K/mol; (318.15 K) 206.1 ± 6.4 J/K/mol; (323.15 K) 214.3 ± 6.6 J/K/mol. In addition, the “molar heat capacity at constant pressure” value reads like this: (328.15 K) 226.1 ± 7 J/K/mol; (333.15 K) 239.2 ± 7.4 J/K/mol; (338.15 K) 249 ± 7.7 J/K/mol; (343.15 K) 260.2 ± 8.1 J/K/mol.
